system: lentiviral pseudoparticles carrying H1-HA and N1-NA (from A/PR/8/34); assay type: cell-based, influenza A virus; details: control compounds; MDCK cells; Fig. 3

Row | Compound | inhibition of pseudoparticle entry, in words
1 | CC(C)c1ccccc1NCCN1CCCCC1.Cl [Compound 80] | Strong and dose-dependent inhibition
2 | CCc1ccccc1OCCN1CCCCCC1 [Compound 81] | Strong and dose-dependent inhibition
3 | COC(=O)[C@@H]1NC(=O)[C@@H]2NC(=O)[C@H](NC(=O)[C@@H]3NC(=O)[C@H]4NC(=O)[C@H](NC(=O)[C@H](Nc5c(NCc6ccc(-c7ccccc7)cc6)c(=O)c5=O)c5ccc(O)c(c5)Oc5cc4cc(O)c5C)[C@H](O)c4ccc(cc4)Oc4cc3cc(c4O)Oc3ccc(cc3)[C@H]2O)c2ccc(O)c(c2)-c2c(O)cc(O)cc21 [SA-19] | Strong and dose-dependent inhibition
4 | CCN(CC)CCCC(C)Nc1ccnc2cc(Cl)ccc12 (stereo not shown) [chloroquine] | Strong and dose-dependent inhibition
